The subject of series [1] is Haemonchus contortus L1 larvae. The series is described as follows: Screening method to test activity against Haemonchus contortus (L1 larval development, microtitre plate). Particulars: 96 h; for EC50: read-out: median EC50 value; for MIC90: read-out: median MIC90 value.
Protocol: METHOD A: Screening method to test activity of compounds against Haemonchus contortus.
Twenty L1 Haemonchus contortus larvae were added to wells of a microtitre plate containing a nutrient medium and the test compound in DMSO. An analysis was conducted at 4 days to determine the extent of development of the larvae. Larvae exposed to DMSO alone served as controls.
The EC50 and MIC90 recordings were obtained using different instruments.
The test system of series [2] is microfilaria of Dirofilaria immitis. The series is described as follows: Screening method to test activity against microfilaria of Dirofilaria immitis (survival, microtitre plate). To be noted: 72 h, read-out: median EC50 value. Format: cell-based.
For series [3] the following is noted: amide bond, 24-membered ring.

In brackets after ≈: the same amount, converted by molar mass. Like-named read-outs stand apart in the source and are kept apart here.

A word on the EC50: it is the midpoint of the concentration-response curve. As usually defined, the MIC90 is the lowest concentration that inhibits either 90% of growth or 90% of the strains tested, depending on the study.

For `C[C@H]1OC(=O)C2(CC2)N(C)C(=O)[C@@H](Cc2ccc(C3CCOCC3)cc2)OC(=O)[C@H](CC(C)(C)F)N(C)C(=O)[C@@H](C)OC(=O)C2(CC2)N(C)C(=O)[C@@H](Cc2ccc(C3CCOCC3)cc2)OC(=O)[C@H](CC(C)(C)F)N(C)C1=O` [Compound 969-34A, (6R,9S,12R,20R,23S,26R)-9,23-bis(2-fluoro-2-methylpropyl)-4,10,12,18,24,26-hexamethyl-6,20-bis([[4-(oxan-4-yl)phenyl]methyl])-7,13,21,27-tetraoxa-4,10,18,24-tetraazadispiro[2.11.2^[15].11^[3]]octacosan-5,8,11,14,19,22,25,28-octone], the EC50 in series [1] and in series [2] was 1000 to 10000 nM in each case. Moreover, in series [3] (from H-MeAcc(1-aminocyclopropanecarboxylic)-dLac-MeLeu(4-F)-dPhLac(4-oxan-4-yl)-MeAcc(1-aminocyclopropanecarboxylic)-dLac-MeLeu(4-F)-dPhLac(4-oxan-4-yl)-OH, BOP-Cl/DIEA, DCM, 3.2 mM), the ring closure, yield after HPLC turned out to be 29%.

“(3S,6R,9S,12R,15S,18R,21S,24R)-3,15-bis(cyclopropylmethyl)-9,21-bis(2-fluoro-2-methylpropyl)-4,10,12,16,22,24-hexamethyl-6,18-bis([[4-(morpholin-4-yl)phenyl]methyl])-1,7,13,19-tetraoxa-4,10,16,22-tetraazacyclotetracosan-2,5,8,11,14,17,20,23-octone” came in with a ring closure, yield after HPLC in series [3] (DIEA) of 24%.

Regarding `CC(C)C[C@H]1C(=O)O[C@H](C)C(=O)N(C)[C@@H](CC(C)(C)F)C(=O)O[C@H](Cc2ccc(C3CCOCC3)cc2)C(=O)N(C)C2(CC2)C(=O)O[C@H](C)C(=O)N(C)[C@@H](CC(C)(C)F)C(=O)O[C@H](Cc2ccc(C3CCOCC3)cc2)C(=O)N1C`, in series [3] (from H-MeAcc(1-aminocyclopropanecarboxylic)-dLac-MeLeu(4-F)-dPhLac(4-oxan-4-yl)-MeLeu-dLac-MeLeu(4-F)-dPhLac(4-oxan-4-yl)-OH, BOP-Cl/DIEA, DCM, 0.87 mM), the ring closure, yield after HPLC was 39%.

Consider `CC(C)C[C@H]1C(=O)O[C@H](C)C(=O)N(C)[C@@H](CC2CC2)C(=O)O[C@H](Cc2ccc(N3CCOCC3)nc2)C(=O)N(C)[C@@H](CC(C)C)C(=O)O[C@H](C)C(=O)N(C)[C@@H](CC2CC2)C(=O)O[C@H](Cc2ccc(N3CCOCC3)nc2)C(=O)N1C` [Compound 9-7A, (3S,6R,9S,12R,15S,18R,21S,24R)-3,15-bis(cyclopropylmethyl)-4,6,10,16,18,22-hexamethyl-9,21-bis(2-methylpropyl)-12,24-bis([[6-(morpholin-4-yl)pyridin-3-yl]methyl])-1,7,13,19-tetraoxa-4,10,16,22-tetraazacyclotetracosan-2,5,8,11,14,17,20,23-octone], for which the EC50 in series [2] fell in the range of 1000 to 10000 nM. The same molecule displayed a ring closure, yield after HPLC in series [3] (from H-MeAla(cyclopropyl)-dLac(3-[6-(morpholin-4-yl)pyridin-3-yl])-MeLeu-dLac-MeAla(cyclopropyl)-dLac(3-[6-(morpholin-4-yl)pyridin-3-yl])-MeLeu-dLac-OH?, BOP-Cl/DIEA, DCM, 4.2 mM) of 12%.

`C[C@H]1OC(=O)[C@H](CC2CC2)N(C)C(=O)[C@@H](Cc2ccc(N3CCOCC3)cc2)OC(=O)[C@H](CC2CC2)N(C)C(=O)[C@@H](C)OC(=O)[C@H](CC2CC2)N(C)C(=O)[C@@H](Cc2ccc(N3CCOCC3)cc2)OC(=O)[C@H](CC2CC2)N(C)C1=O` [Compound 6-1A, (3S,6R,9S,12R,15S,18R,21S,24R)-3,9,15,21-tetrakis(cyclopropylmethyl)-4,10,12,16,22,24-hexamethyl-6,18-bis([[4-(morpholin-4-yl)phenyl]methyl])-1,7,13,19-tetraoxa-4,10,16,22-tetraazacyclotetracosan-2,5,8,11,14,17,20,23-octone]: the MIC90 in series [1] lay in the range of 1 to 10 µM (≈ 1.11 to 11.1 µg/mL). The EC50 in series [2] was 100 to 1000 nM. This molecule also showed a ring closure, yield after HPLC in series [3] (from H-MeAla(cyclopropyl)-dPhLac(4-morpholino)-MeAla(cyclopropyl)-dLac-MeAla(cyclopropyl)-dPhLac(4-morpholino)-MeAla(cyclopropyl)-dLac-OH, BOP-Cl/DIEA, DCM, 1.5 mM) of 13%.

In the case of `CN1C(=O)COC(=O)[C@H](CC2CC2)N(C)C(=O)[C@@H](Cc2ccc(C3CCOCC3)cc2)OC(=O)[C@H](CC(C)(C)F)N(C)C(=O)COC(=O)[C@H](CC2CC2)N(C)C(=O)[C@@H](Cc2ccc(C3CCOCC3)cc2)OC(=O)[C@@H]1CC(C)(C)F`, the ring closure, yield after HPLC in series [3] (from H-MeLeu(4-F)-dPhLac(4-oxan-4-yl)-MeAla(3-cyclopropyl)-Glycolic-MeLeu(4-F)-dPhLac(4-oxan-4-yl)-MeAla(3-cyclopropyl)-Glycolic-OH, BOP-Cl/DIEA, DCM, 2.57 mM) was 33%.

Regarding `C[C@H]1OC(=O)[C@H](CC2CC2)N(C)C(=O)[C@@H](Cc2ccc(C3CCOCC3)cc2)OC(=O)[C@H](CC(C)(C)F)N(C)C(=O)[C@@H](C)OC(=O)[C@H](CC2CC2)N(C)C(=O)[C@@H](Cc2ccc(C3CCOCC3)cc2)OC(=O)[C@H](CC(C)(C)F)N(C)C1=O` [Compound 7-34A, (3S,6R,9S,12R,15S,18R,21S,24R)-3,15-bis(cyclopropylmethyl)-9,21-bis(2-fluoro-2-methylpropyl)-4,-10,12,16,22,24-hexamethyl-6,18-bis([[4-(oxan-4-yl)phenyl]methyl])-1,7,13,19-tetraoxa-4,10,16,22-te-traazacyclotetracosan-2,5,8,11,14,17,20,23-octone], in series [1], the EC50 is < 100 nM and the MIC90 is < 0.1 µM. In addition, the EC50 in series [2] is < 100 nM. The ring closure, yield after HPLC in series [3] (from H-MeLeu(4-F)-dPhLac(4-oxan-4-yl)-MeAla(3-cyclopropyl)-dLac-MeLeu(4-F)-dPhLac(4-oxan-4-yl)-MeAla(3-cyclopropyl)-dLac-OH, BOP-Cl/DIEA, DCM, 2.75 mM) was found to be 14%.

As for `CC(C)C[C@H]1C(=O)O[C@H](C)C(=O)N(C)[C@@H](CC2CC2)C(=O)O[C@H](Cc2ccc(N3CCOCC3)cc2)C(=O)N(C)[C@@H](CC(C)C)C(=O)O[C@H](C)C(=O)N(C)[C@@H](CC2CC2)C(=O)O[C@H](Cc2ccc(N3CCOCC3)cc2)C(=O)N1C` [Compound 6-7A, (3S,6R,9S,12R,15S,18R,21S,24R)-3,15-bis(cyclopropylmethyl)-4,6,10,16,18,22-hexamethyl-9,21-bis(2-methylpropyl)-12,24-bis([[4-(morpholin-4-yl)phenyl]methyl])-1,7,13,19-tetraoxa-4,10,16,22-tetraazacyclotetracosan-2,5,8,11,14,17,20,23-octone], the MIC90 in series [1] lay within 0.1 to 1 µM (≈ 0.112 to 1.12 µg/mL). Moreover, the EC50 in series [2] was 100 to 1000 nM. The ring closure, yield after HPLC in series [3] (from H-MeAla(cyclopropyl)-dPhLac(4-morpholino)-MeLeu-dLac-MeAla(cyclopropyl)-dPhLac(4-morpholino)-MeLeu-dLac-OH, BOP-Cl/DIEA, DCM, 3.2 mM) turned out to be 8%.

Values taken from patent US12018048B2, “Anthelmintic depsipeptide compounds” (BOEHRINGER INGELHEIM ANIMAL HEALTH USA INC., priority 2015, dated 2024).
